Here are results for 7 compounds from patent EP4691482A1, “LONG-ACTING CALCITONIN ANALOG” (Chengdu Aoda Biotechnology Co., Ltd., priority 2023, dated 2024).

SMILES strings stand for the structures.

This test deals with T1, calcitonin receptors (CTR) (Homo sapiens, UniProt P30988).
T1 construct: expressed in transfected cells; host or cells: cAMP Hunter HEK293-CT-R Gs cell line (HEK293, stably transfected)
T1 sequence (P30988 25-474): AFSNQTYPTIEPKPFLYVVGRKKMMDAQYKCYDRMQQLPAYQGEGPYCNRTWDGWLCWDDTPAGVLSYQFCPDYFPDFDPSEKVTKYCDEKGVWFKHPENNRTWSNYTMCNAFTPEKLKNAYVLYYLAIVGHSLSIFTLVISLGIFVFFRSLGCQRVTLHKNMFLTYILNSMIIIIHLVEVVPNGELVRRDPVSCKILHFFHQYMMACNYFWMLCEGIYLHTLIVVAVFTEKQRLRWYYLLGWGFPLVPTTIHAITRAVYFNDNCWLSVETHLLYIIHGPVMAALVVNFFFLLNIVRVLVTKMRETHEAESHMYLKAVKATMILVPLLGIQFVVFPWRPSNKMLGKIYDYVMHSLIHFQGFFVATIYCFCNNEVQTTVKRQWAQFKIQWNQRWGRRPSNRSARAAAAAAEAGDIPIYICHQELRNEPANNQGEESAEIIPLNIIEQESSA
In words: cAMP determination (HTRF, cAMP Dynamic 2 Kit) in cAMP Hunter HEK293-CT-R Gs cell line. Format: cell-based. Conditions: for EC50: HEK293 cell line stably expressing CT-R, intracellular cAMP, HTRF; for Relative Activity%: relative to Salmon Calcitonin = 100.0, HEK293 CT-R cAMP. From the text:
Upon activation by a ligand, Gas-coupled GPCRs can upregulate intracellular cAMP level, and cAMP, as a second messenger, can mediate a series of cellular responses. The cAMP Hunter HEK293-CT-R Gs cell line, which overexpresses Gas-coupled calcitonin receptors (CTR), was used. The binding of calcitonin (or an analog thereof) to the overexpressed CTR upregulates intracellular cAMP level. The amount of intracellular cAMP produced after activation by the calcitonin (or an analog thereof) was detected using a cAMP Dynamic 2 Kit to evaluate the biological activity of the calcitonin (or an analog thereof). HEK293 cell line stably expressing CT-R was used. Stably transfected cells were stimulated with various concentrations of agonists. The time-resolved fluorescence resonance energy signal from the cells after stimulation with different doses was measured using HTRF technology, from which the biological activity of the agonist was subsequently calculated.
A general note: Time-resolved FRET reads energy transfer from a long-lived donor to a nearby acceptor.

Turning to `CC(C)C[C@H](NC(=O)[C@H](CCCCN)NC(=O)CNC(=O)[C@H](CC(C)C)NC(=O)[C@@H](NC(=O)[C@@H]1CSSC[C@H](N)C(=O)N[C@@H](CO)C(=O)N[C@@H](CC(N)=O)C(=O)N[C@@H](CC(C)C)C(=O)N[C@@H](CO)C(=O)N[C@@H]([C@@H](C)O)C(=O)N1)C(C)C)C(=O)N[C@@H](CO)C(=O)N[C@@H](CCC(N)=O)C(=O)N[C@@H](CCC(=O)O)C(=O)N[C@@H](CC(C)C)C(=O)N[C@@H](Cc1c[nH]cn1)C(=O)N[C@@H](CCCCNC(=O)COCCOCCNC(=O)COCCOCCNC(=O)CC[C@H](NC(=O)CCCCCCCCCCCCCCCCCCC(=O)O)C(=O)O)C(=O)N[C@@H](CC(C)C)C(=O)N[C@@H](CCC(N)=O)C(=O)N[C@H](C(=O)N[C@@H](Cc1ccc(O)cc1)C(=O)N1CCC[C@H]1C(=O)N[C@@H](CCCNC(=N)N)C(=O)N[C@H](C(=O)N[C@@H](CC(N)=O)C(=O)N[C@H](C(=O)NCC(=O)N[C@@H](CO)C(=O)NCC(=O)N[C@H](C(=O)N1CCC[C@H]1C(N)=O)[C@@H](C)O)[C@@H](C)O)[C@@H](C)O)[C@@H](C)O` [Compound 16, Cys-Ser-Asn-Leu-Ser-Thr-Cys-Val-Leu-Gly-Lys-Leu-Ser-Gln-Glu-Leu-His-Lys(AEEA-AEEA-γGlu-eicosanedioic acid)-Leu-Gln-Thr-Tyr-Pro-Arg-Thr-Asn-Thr-Gly-Ser-Gly-Thr-Pro-NH2], the EC50 (usually the concentration at which the effect is half-maximal) is 2.9 pM.
The same measure, in the same setting: the figure for `CC(C)C[C@H](NC(=O)[C@H](CCCCN)NC(=O)CNC(=O)[C@H](CC(C)C)NC(=O)[C@@H](NC(=O)[C@@H]1CSSC[C@H](N)C(=O)N[C@@H](CO)C(=O)N[C@@H](CC(N)=O)C(=O)N[C@@H](CC(C)C)C(=O)N[C@@H](CO)C(=O)N[C@@H]([C@@H](C)O)C(=O)N1)C(C)C)C(=O)N[C@@H](CO)C(=O)N[C@@H](CCC(N)=O)C(=O)N[C@@H](CCC(=O)O)C(=O)N[C@@H](CC(C)C)C(=O)N[C@@H](Cc1c[nH]cn1)C(=O)N[C@@H](CCCCNC(=O)CNC(=O)CNC(=O)CNC(=O)CNC(=O)CC[C@H](NC(=O)CCCCCCCCCCCCCCCCCCC(=O)O)C(=O)O)C(=O)N[C@@H](CC(C)C)C(=O)N[C@@H](CCC(N)=O)C(=O)N[C@H](C(=O)N[C@@H](Cc1ccc(O)cc1)C(=O)N1CCC[C@H]1C(=O)N[C@@H](CCCNC(=N)N)C(=O)N[C@H](C(=O)N[C@@H](CC(N)=O)C(=O)N[C@H](C(=O)NCC(=O)N[C@@H](CO)C(=O)NCC(=O)N[C@H](C(=O)N1CCC[C@H]1C(N)=O)[C@@H](C)O)[C@@H](C)O)[C@@H](C)O)[C@@H](C)O` [Compound 13] is 3.5 pM; for `CC(C)C[C@H](NC(=O)[C@H](CCCCN)NC(=O)CNC(=O)[C@H](CC(C)C)NC(=O)[C@@H](NC(=O)[C@@H]1CSSC[C@H](N)C(=O)N[C@@H](CO)C(=O)N[C@@H](CC(N)=O)C(=O)N[C@@H](CC(C)C)C(=O)N[C@@H](CO)C(=O)N[C@@H]([C@@H](C)O)C(=O)N1)C(C)C)C(=O)N[C@@H](CO)C(=O)N[C@@H](CCC(N)=O)C(=O)N[C@@H](CCC(=O)O)C(=O)N[C@@H](CC(C)C)C(=O)N[C@@H](Cc1c[nH]cn1)C(=O)N[C@@H](CCCCNC(=O)CNC(=O)CNC(=O)[C@H](CO)NC(=O)CNC(=O)[C@H](CO)NC(=O)CNC(=O)[C@H](CO)NC(=O)CNC(=O)CC[C@H](NC(=O)CCCCCCCCCCCCCCCCCCC(=O)O)C(=O)O)C(=O)N[C@@H](CC(C)C)C(=O)N[C@@H](CCC(N)=O)C(=O)N[C@H](C(=O)N[C@@H](Cc1ccc(O)cc1)C(=O)N1CCC[C@H]1C(=O)N[C@@H](CCCNC(=N)N)C(=O)N[C@H](C(=O)N[C@@H](CC(N)=O)C(=O)N[C@H](C(=O)NCC(=O)N[C@@H](CO)C(=O)NCC(=O)N[C@H](C(=O)N1CCC[C@H]1C(N)=O)[C@@H](C)O)[C@@H](C)O)[C@@H](C)O)[C@@H](C)O` [Compound 9] it is 4.1 pM; for `CC(C)C[C@H](NC(=O)[C@H](CCCCN)NC(=O)CNC(=O)[C@H](CC(C)C)NC(=O)[C@@H](NC(=O)[C@@H]1CSSC[C@H](N)C(=O)N[C@@H](CO)C(=O)N[C@@H](CC(N)=O)C(=O)N[C@@H](CC(C)C)C(=O)N[C@@H](CO)C(=O)N[C@@H]([C@@H](C)O)C(=O)N1)C(C)C)C(=O)N[C@@H](CO)C(=O)N[C@@H](CCC(N)=O)C(=O)N[C@@H](CCC(=O)O)C(=O)N[C@@H](CC(C)C)C(=O)N[C@@H](Cc1c[nH]cn1)C(=O)N[C@@H](CCCCNC(=O)CNC(=O)CNC(=O)CNC(=O)CC[C@H](NC(=O)CCCCCCCCCCCCCCCCCCC(=O)O)C(=O)O)C(=O)N[C@@H](CC(C)C)C(=O)N[C@@H](CCC(N)=O)C(=O)N[C@H](C(=O)N[C@@H](Cc1ccc(O)cc1)C(=O)N1CCC[C@H]1C(=O)N[C@@H](CCCNC(=N)N)C(=O)N[C@H](C(=O)N[C@@H](CC(N)=O)C(=O)N[C@H](C(=O)NCC(=O)N[C@@H](CO)C(=O)NCC(=O)N[C@H](C(=O)N1CCC[C@H]1C(N)=O)[C@@H](C)O)[C@@H](C)O)[C@@H](C)O)[C@@H](C)O` [Compound 12] it is 3.9 pM.
On to `CC(C)C[C@H](NC(=O)[C@H](CCCCN)NC(=O)CNC(=O)[C@H](CC(C)C)NC(=O)[C@@H](NC(=O)[C@@H]1CSSC[C@H](N)C(=O)N[C@@H](CO)C(=O)N[C@@H](CC(N)=O)C(=O)N[C@@H](CC(C)C)C(=O)N[C@@H](CO)C(=O)N[C@@H]([C@@H](C)O)C(=O)N1)C(C)C)C(=O)N[C@@H](CO)C(=O)N[C@@H](CCC(N)=O)C(=O)N[C@@H](CCC(=O)O)C(=O)N[C@@H](CC(C)C)C(=O)N[C@@H](Cc1c[nH]cn1)C(=O)N[C@@H](CCCCNC(=O)COCCOCCOCCOCCNC(=O)CC[C@H](NC(=O)CCCCCCCCCCCCCCCCCCC(=O)O)C(=O)O)C(=O)N[C@@H](CC(C)C)C(=O)N[C@@H](CCC(N)=O)C(=O)N[C@H](C(=O)N[C@@H](Cc1ccc(O)cc1)C(=O)N1CCC[C@H]1C(=O)N[C@@H](CCCNC(=N)N)C(=O)N[C@H](C(=O)N[C@@H](CC(N)=O)C(=O)N[C@H](C(=O)NCC(=O)N[C@@H](CO)C(=O)NCC(=O)N[C@H](C(=O)N1CCC[C@H]1C(N)=O)[C@@H](C)O)[C@@H](C)O)[C@@H](C)O)[C@@H](C)O` [Compound 4, Cys-Ser-Asn-Leu-Ser-Thr-Cys-Val-Leu-Gly-Lys-Leu-Ser-Gln-Glu-Leu-His-Lys(PEG4CH2CO-yGlu-eicosanedioic acid)-Leu-Gln-Thr-Tyr-Pro-Arg-Thr-Asn-Thr-Gly-Ser-Gly-Thr-Pro-NH2], for which the “Relative Activity%” value turned out to be 316.7%.
For `CC(C)C[C@H](NC(=O)[C@H](CCCCN)NC(=O)CNC(=O)[C@H](CC(C)C)NC(=O)[C@@H](NC(=O)[C@@H]1CSSC[C@H](N)C(=O)N[C@@H](CO)C(=O)N[C@@H](CC(N)=O)C(=O)N[C@@H](CC(C)C)C(=O)N[C@@H](CO)C(=O)N[C@@H]([C@@H](C)O)C(=O)N1)C(C)C)C(=O)N[C@@H](CO)C(=O)N[C@@H](CCC(N)=O)C(=O)N[C@@H](CCC(=O)O)C(=O)N[C@@H](CC(C)C)C(=O)N[C@@H](Cc1c[nH]cn1)C(=O)N[C@@H](CCCCNC(=O)CNC(=O)CNC(=O)CNC(=O)CNC(=O)CNC(=O)CC[C@H](NC(=O)CCCCCCCCCCCCCCCCCCC(=O)O)C(=O)O)C(=O)N[C@@H](CC(C)C)C(=O)N[C@@H](CCC(N)=O)C(=O)N[C@H](C(=O)N[C@@H](Cc1ccc(O)cc1)C(=O)N1CCC[C@H]1C(=O)N[C@@H](CCCNC(=N)N)C(=O)N[C@H](C(=O)N[C@@H](CC(N)=O)C(=O)N[C@H](C(=O)NCC(=O)N[C@@H](CO)C(=O)NCC(=O)N[C@H](C(=O)N1CCC[C@H]1C(N)=O)[C@@H](C)O)[C@@H](C)O)[C@@H](C)O)[C@@H](C)O` [Compound 14], the EC50 came to 3.1 pM.
With `CC(C)C[C@H](NC(=O)[C@H](CCCCN)NC(=O)CNC(=O)[C@H](CC(C)C)NC(=O)[C@@H](NC(=O)[C@@H]1CSSC[C@H](N)C(=O)N[C@@H](CO)C(=O)N[C@@H](CC(N)=O)C(=O)N[C@@H](CC(C)C)C(=O)N[C@@H](CO)C(=O)N[C@@H]([C@@H](C)O)C(=O)N1)C(C)C)C(=O)N[C@@H](CO)C(=O)N[C@@H](CCC(N)=O)C(=O)N[C@@H](CCC(=O)O)C(=O)N[C@@H](CC(C)C)C(=O)N[C@@H](Cc1c[nH]cn1)C(=O)N[C@@H](CCCCNC(=O)COCCNC(=O)CC[C@H](NC(=O)CCCCCCCCCCCCCCCCCCC(=O)O)C(=O)O)C(=O)N[C@@H](CC(C)C)C(=O)N[C@@H](CCC(N)=O)C(=O)N[C@H](C(=O)N[C@@H](Cc1ccc(O)cc1)C(=O)N1CCC[C@H]1C(=O)N[C@@H](CCCNC(=N)N)C(=O)N[C@H](C(=O)N[C@@H](CC(N)=O)C(=O)N[C@H](C(=O)NCC(=O)N[C@@H](CO)C(=O)NCC(=O)N[C@H](C(=O)N1CCC[C@H]1C(N)=O)[C@@H](C)O)[C@@H](C)O)[C@@H](C)O)[C@@H](C)O` [Compound 1, Cys-Ser-Asn-Leu-Ser-Thr-Cys-Val-Leu-Gly-Lys-Leu-Ser-Gln-Glu-Leu-His-Lys(PEG1CH2CO-γGlu-eicosanedioic acid)-Leu-Gln-Thr-Tyr-Pro-Arg-Thr-Asn-Thr-Gly-Ser-Gly-Thr-Pro-NH2], the “Relative Activity%” value was 206.5%.
